Reference: article PMC2852583 (Biochemistry, 2010)

target: T1, pKSI (Δ5-3-ketosteroid isomerase from Pseudomonas putida) (Pseudomonas putida, UniProt P07445, D40N); test: fluorescence emission, linear combination of bound and free spectra; type: binding
T1 sequence (P07445 1-131 D40N): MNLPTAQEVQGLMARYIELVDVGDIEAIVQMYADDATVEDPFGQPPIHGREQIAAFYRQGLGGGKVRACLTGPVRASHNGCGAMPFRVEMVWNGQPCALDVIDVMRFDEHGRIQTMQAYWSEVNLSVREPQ

Row | Structure (SMILES) | Kd [µM]
1 | Oc1ccc2cc(O)ccc2c1 [2,6-dihydroxynaphthalene] | 20 ± 6
2 | Oc1ccc2cc(Br)ccc2c1 [6-bromo-2-naphthol] | 4 ± 1
3 | N#Cc1ccc2cc(O)ccc2c1 [6-cyano-2-naphthol] | 2 ± 1
4 | COc1ccc2cc(O)ccc2c1 [6-methoxy-2-naphthol] | 10 ± 5
